What was measured:
Test in all cases: relative viability (nuclei count vs DMSO), 5 days (fraction); higher = more cells survive
FG-4592 + Trametinib = compound: Cc1nc(C(=O)NCC(=O)O)c(O)c2ccc(Oc3ccccc3)cc12 [FG-4592] + CC(=O)Nc1cccc(-n2c(=O)n(C3CC3)c(=O)c3c(Nc4ccc(I)cc4F)n(C)c(=O)c(C)c32)c1 [Trametinib] (partner 0.02 µM)
Outline: (§1)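 One day after seeding in 1536-well plates, lung cancer cell lines were dosed by pin tool. Dosing was either single-drug or a fixed anchor-drug dose plus five library-drug doses (not always all listed) in √10 steps. After 5 days, nuclei were stained in one fix-and-stain step and counted on 4× images, and relative viability is the nuclei count of treated wells over that of vehicle wells, given as the median of duplicate plates.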

FG-4592 + Foretinib = compound: Cc1nc(C(=O)NCC(=O)O)c(O)c2ccc(Oc3ccccc3)cc12 [FG-4592] + COc1cc2c(Oc3ccc(NC(=O)C4(C(=O)Nc5ccc(F)cc5)CC4)cc3F)ccnc2cc1OCCCN1CCOCC1 [Foretinib] (partner 0.25 µM)
Outline: as §1

FG-4592 + Pictilisib = compound: Cc1nc(C(=O)NCC(=O)O)c(O)c2ccc(Oc3ccccc3)cc12 [FG-4592] + CS(=O)(=O)N1CCN(Cc2cc3nc(-c4cccc5[nH]ncc45)nc(N4CCOCC4)c3s2)CC1 [Pictilisib] (partner 1 µM)
Outline: as §1

IU1-47 + Dasatinib = compound: CC1=CC(=C(N1C2=CC=C(C=C2)Cl)C)C(=O)CN3CCCCC3 [IU1-47] + Cc1nc(Nc2ncc(C(=O)Nc3c(C)cccc3Cl)s2)cc(N2CCN(CCO)CC2)n1 [Dasatinib] (partner 0.075 µM)
Outline: as §1

Cell Line | relative viability (FG-4592 + Trametinib; first compound 0.08 µM) | relative viability (FG-4592 + Trametinib; first compound 0.253 µM) | relative viability (FG-4592 + Trametinib; first compound 0.8 µM) | relative viability (FG-4592 + Trametinib; first compound 2.53 µM) | relative viability (FG-4592 + Trametinib; first compound 8 µM) | relative viability (FG-4592 + Foretinib; first compound 0.08 µM) | relative viability (FG-4592 + Foretinib; first compound 0.253 µM) | relative viability (FG-4592 + Foretinib; first compound 0.8 µM) | relative viability (FG-4592 + Foretinib; first compound 2.53 µM) | relative viability (FG-4592 + Foretinib; first compound 8 µM) | relative viability (FG-4592 + Pictilisib; first compound 0.08 µM) | relative viability (FG-4592 + Pictilisib; first compound 0.253 µM) | relative viability (FG-4592 + Pictilisib; first compound 0.8 µM) | relative viability (FG-4592 + Pictilisib; first compound 2.53 µM) | relative viability (FG-4592 + Pictilisib; first compound 8 µM) | relative viability (IU1-47 + Dasatinib; first compound 0.08 µM) | relative viability (IU1-47 + Dasatinib; first compound 0.253 µM) | relative viability (IU1-47 + Dasatinib; first compound 0.8 µM) | relative viability (IU1-47 + Dasatinib; first compound 2.53 µM) | relative viability (IU1-47 + Dasatinib; first compound 8 µM)
NCI-H727 | 0.363 | 0.335 | 0.352 | 0.357 | 0.38 | 0.934 | 0.617 | 1.08 | 0.999 | 1.11 | 0.311 | 0.274 | 0.307 | 0.335 | 0.452 | 0.396 | 0.398 | 0.362 | 0.289 | 0.442
NCI-H441 | 0.497 | 0.433 | 0.401 | 0.3 | 0.497 | 0.956 | 0.896 | 0.931 | 0.841 | 1.01 | 0.585 | 0.524 | 0.509 | 0.483 | 0.464 | 0.717 | 0.655 | 0.679 | 0.471 | 0.576
LOU-NH91 | 0.807 | 0.766 | 0.724 | 0.773 | 0.748 | 0.971 | 0.879 | 0.917 | 0.868 | 0.91 | 0.456 | 0.51 | 0.509 | 0.545 | 0.554 | 0.597 | 0.581 | 0.605 | 0.608 | 0.534
NCI-H3122 | 0.19 | 0.244 | 0.196 | 0.264 | 0.119 | 0.957 | 0.952 | 0.934 | 0.993 | 0.921 | 0.735 | 0.57 | 0.511 | 0.583 | 0.605 |  | 0.816 | 0.854 | 0.892 | 1.01
NCI-H460 | 0.163 | 0.13 | 0.127 | 0.0958 | 0.129 | 0.986 | 1.04 | 1.04 | 1.03 | 1.03 | 0.236 | 0.367 | 0.314 | 0.466 | 0.381 | 0.68 | 0.508 | 0.654 | 0.538 | 0.501
NCI-H650 | 1.06 | 0.936 | 0.916 | 1 | 0.838 | 0.997 | 0.961 | 0.882 | 0.991 | 0.861 | 0.879 | 0.916 | 0.739 | 0.801 | 0.872 | 0.457 | 0.439 | 0.476 | 0.427 | 0.445
